Measurements as given in patent US7273880B2, “Selective NPY (Y5) antagonists” (H. Lunbeck A/S, priority 1999, dated 2007).

How the values were obtained:
[1] = target: hNPY-1,2,4 (human Y1, Y2, Y4 receptors); test: Radioligand binding to membranes, cloned human Y1, Y2 and Y4 receptors; conditions: one bound given for all three
Procedure: Binding of the compounds of the present invention to human Y1, Y2, Y4, and Y5 receptors was evaluated using stably transfected 293 or LM(tk-) cells as described above. Stably transfected cell lines which may be used for binding assays include, for example, for the human Y1 receptor, 293-hY1-5 (deposited Jun. 4, 1996, under ATCC Accession No. CRL-12121), for the human Y2 receptor, 293-hY2-10 (deposited Jan. 27, 1994, under ATCC Accession No. CRL-11537), for the human Y4 receptor, L-hY4-3 (deposited Jan. 11, 1995, under ATCC Accession No. CRL-11779), and for human Y5 receptor, L-hY5-7 (deposited Nov. 15, 1995, under ATCC Accession No. CRL-11995). These cell lines were deposited with the American Type Culture Collection (ATCC), 10801 University Blvd., Manassas, Va. 20110-2209, U.S.A. under the provisions of the Budapest Treaty for the International Recognition of the Deposit of Microorganisms for the Purposes of Patent Procedure.
Membranes were harvested from COS-7 cells 48 hours after transient transfection. Adherent cells were washed twice in ice-cold phosphate buffered saline (138 mM NaCl, 8.1 mM Na2HPO4, 2.5 mM KCl, 1.2 mM KH2PO4, 0.9 mM CaCl2, 0.5 mM MgCl2, pH 7.4) and lysed by sonication in ice-cold sonication buffer (20 mM Tris-HCl, 5 mM EDTA, pH 7.7). Large particles and debris were cleared by low speed centrifugation (200×g, 5 min, 4° C.). Membranes were collected from the supernatant fraction by centrifugation (32,000×g, 18 min, 4° C.), washed with ice-cold hypotonic buffer, and collected again by centrifugation (32,000×g, 18 min, 4° C.). The final membrane pellet was resuspended by sonication into a small volume of ice-cold binding buffer (˜1 ml for every 5 plates: 10 mM NaCl, 20 mM HEPES, 0.22 mM KH2PO4, 1.26 mM CaCl2, 0.81 mM MgSO4, pH 7.4). Protein concentration was measured by the Bradford method (Bradford, 1976) using Bio-Rad Reagent, with bovine serum albumin as a standard. Membranes were held on ice for up to one hour and used fresh, or flash-frozen and stored in liquid nitrogen.
Membranes were prepared similarly from 293, LM(tk-), and NIH-3T3 cells. To prepare membranes from baculovirus infected cells, 2×10^7 Sf21 cells were grown in 150 mm tissue culture dishes and infected with a high-titer stock of hY5BB3. Cells were incubated for 2-4 days at 27° C., no CO2 before harvesting and membrane preparation as described above.
Membrane suspensions were diluted in binding buffer supplemented with 0.1% bovine serum albumin to yield an optimal membrane protein concentration so that ^125I-PYY (or alternative radioligand such as ^125I-NPY, ^125I-PYY3-36, or ^125I-[Leu^31Pro^34]PYY) bound by membranes in the assay was less than 10% of ^125I-PYY (or alternative radioligand) delivered to the sample (100,000 dpm/sample=0.08 nM for competition binding assays). ^125I-PYY (or alternative radioligand) and peptide competitors were also diluted to desired concentrations in supplemented binding buffer. Individual samples were then prepared in 96-well polypropylene microtiter plates by mixing 125I-PYY (25 μL) (or alternative radioligand), competing peptides or supplemented binding buffer (25 μL), and finally, membrane suspensions (200 μL). Samples were incubated in a 30° C. water bath with constant shaking for 120 min. Incubations were terminated by filtration over Whatman GF/C filters (pre-coated with 1% polyethyleneimine and air-dried before use), followed by washing with 5 mL of ice-cold binding buffer. Filter-trapped membranes were impregnated with MeltiLex solid scintillant (Wallac, Turku, Finland) and counted for ^125I in a Wallac Beta-Plate Reader. Alternatively, incubations were carried out in GF/C filter plates (pre-coated with 1% polyethyleneimine and air-dried before use), followed by vacuum filtration and three washes of 300 μL of ice-cold binding buffer. 50 μL of UltimaGold (Packard) scintillant were added and counted for ^125I in a Wallac MicroBeta Trilux. […]

[2] = target: T1, human Y5 receptor (hNPY-5) (Homo sapiens, UniProt Q15761); test: Radioligand binding to membranes, cloned human Y5 receptor; conditions: cloned human NPY Y5 receptor, radioligand competition binding; Tables 1-3; read-out: Ki, nM hNPY-5
T1 construct: expressed in transfected cells; host or cells: mouse fibroblast LM(tk-) cells, e.g. L-hY5-7 (ATCC CRL-11995)
T1 sequence (Q15761 1-445): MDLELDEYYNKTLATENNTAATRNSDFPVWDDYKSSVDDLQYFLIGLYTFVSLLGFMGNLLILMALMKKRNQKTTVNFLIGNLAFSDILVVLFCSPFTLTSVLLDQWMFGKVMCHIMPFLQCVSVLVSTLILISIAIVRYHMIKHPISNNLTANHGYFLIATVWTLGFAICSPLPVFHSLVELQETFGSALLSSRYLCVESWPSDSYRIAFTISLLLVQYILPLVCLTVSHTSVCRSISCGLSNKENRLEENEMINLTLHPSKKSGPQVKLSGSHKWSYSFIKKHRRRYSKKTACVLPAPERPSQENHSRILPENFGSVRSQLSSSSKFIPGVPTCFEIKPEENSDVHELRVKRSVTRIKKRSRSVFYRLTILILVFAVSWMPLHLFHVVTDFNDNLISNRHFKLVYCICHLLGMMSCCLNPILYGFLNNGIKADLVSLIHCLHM
Summary of the method: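 Competition binding on membranes from stably transfected 293 or LM(tk-) cells, with 0.08 nM ¹²⁵I-PYY in pH 7.4 HEPES buffer plus 0.1% BSA, 120 min at 30 °C, filtration and counting. Nonspecific binding defined by 300 nM human NPY, or 100 nM human PP for Y4; nonlinear regression.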

SMILES	Ki [1] [nM]	Ki [2] [nM]
CCS(=O)(=O)NC[C@H]1CC[C@H](Nc2nc3c(s2)CCCc2ccc(F)cc2-3)CC1 [Example 31, trans-N2-(4-Ethylsulfonylaminomethyl)cyclohexyl-9-fluoro-5,6-dihydro-4H-benzo[6,7]cyclohepta[d][1,3]-thiazol-2-amine]	> 10000	3.9
COc1ccc(S(=O)(=O)NC[C@H]2CC[C@H](Nc3nc4c(s3)CCCc3ccc(F)cc3-4)CC2)cc1 [Example 27, trans-1-Aza-9-fluoro-4,5-dihydro-2-{4-(4-methoxy-phenyl)-sulfonylaminomethyl}cyclohexylamino-3-thia-benzo[e]azulene]	> 10000	9.2
O=S(=O)(NC[C@H]1CC[C@H](Nc2nc3c(s2)CCCc2ccc(F)cc2-3)CC1)c1c(F)cccc1F [Example 28, trans-N2-(4-(2,6-Difluorophenylsulfonyl)aminomethyl)-cyclohexyl-9-fluoro-5,6-dihydro-4H-benzo[6,7]-cyclohepta-[d][1,3]-thiazol-2-amine]	> 10000	4
CC(C)(C)OC(=O)NCCCCCNc1nc2c(s1)CCSc1ccc(F)cc1-2 [Example 105, tert-Butyl N-{5-[(9-fluoro-4,5-dihydrobenzo[2,3]-thiepino[4,5-d][1,3]thiazol-2-yl)amino]pentyl}-carbamate]	> 10000	91
O=S(=O)(NCCCCCNc1nc2c(s1)CCCc1ccc(F)cc1-2)c1ccc(F)c(F)c1 [Example 17, 1-Aza-2-(5-(3,4-difluorophenyl)sulfonylamino)-pentylamino-9-fluoro-4,5-dihydro-3-thia-benzo[e]-azulene]	> 10000	11
Cc1noc(C)c1S(=O)(=O)NC[C@H]1CC[C@H](Nc2nc3c(s2)CCCc2ccc(F)cc2-3)CC1 [Example 33, trans-1-Aza-9-fluoro-4,5-dihydro-2-{4-(3,5-dimethylisoxazol-4-yl)sulfonylaminomethyl}cyclohexyl-amino-3-thia-benzo[e]azulene]	> 10000	6.8
CCN(CC)S(=O)(=O)NCCCCCNc1nc2c(s1)CCSc1ccccc1-2 [Example 103, N′-[5-(4,5-Dihydrobenzo[2,3]thiepino[4,5-d][1,3]thiazol-2-ylamino)pentyl]-N,N-diethylsulfamide]	> 10000	3.7
O=S(=O)(N[C@H]1CC[C@H](Nc2nc3c(s2)CCCc2ccc(F)cc2-3)CC1)c1cccnc1 [Example 54, trans-1-Aza-9-fluoro-4,5-dihydro-2-(4-(3-pyridyl-sulfonylamino)cyclohexyl)amino-3-thia-benzo[e]azulene]	> 10000	11.9
CCN(CC)S(=O)(=O)NC[C@H]1CC[C@H](Nc2nc3c(s2)CCSc2ccccc2-3)CC1 [Example 102, N′-{[4-(4,5-Dihydrobenzo[2,3]thiepino[4,5-d][1,3]thiazol-2-ylamino)cyclohexyl]methyl}-N,N-diethylsulfamide]	> 10000	5.2
O=S(=O)(N[C@H]1CC[C@H](CNc2nc3c(s2)CCCc2ccc(F)cc2-3)CC1)c1ccccc1F [Example 42, trans-1-Aza-9-fluoro-2-{4-(2-fluoro)phenylsulfonyl-amino}-cyclohexylmethylamino-4,5-dihydro-3-thia-benzo[e]azulene]	> 10000	3.9
Cc1noc(C)c1S(=O)(=O)NCCCCCNc1nc2c(s1)CCCc1ccc(F)cc1-2 [Example 24, 1-Aza-9-fluoro-4,5-dihydro-2-(5-(3,5-dimethyl-isoxazol-4-yl)sulfonylamino)pentylamino-3-thia-benzo[e]azulene]	> 10000	3.5
COc1ccc(S(=O)(=O)NCCCCCNc2nc3c(s2)CCCc2ccc(F)cc2-3)cc1 [Example 18, 1-Aza-9-fluoro-4,5-dihydro-2-(5-(4-methoxyphenyl)-sulfonylamino)pentylamino-3-thia-benzo[e]azulene]	> 10000	7.1
CCS(=O)(=O)NCCCCCNc1nc2c(s1)CCCc1ccc(F)cc1-2 [Example 21, 1-Aza-9-fluoro-2-(5-ethylsulfonylamino)pentylamino-4,5-dihydro-3-thia-benzo[e]azulene]	> 10000	2.5
CCN(CC)S(=O)(=O)NCCCCCNc1nc2c(s1)CCCc1ccc(F)cc1-2 [Example 14, 1-Aza-9-fluoro-4,5-dihydro-2-(5-(diethyl-aminosulfonyl-amino)pentyl)amino-3-thia-benzo[e]-azulene]	> 10000	2.1
O=S(=O)(NCCCCCNc1nc2c(s1)CCCc1ccc(F)cc1-2)c1ccc(F)cc1F [Example 12, 1-Aza-9-fluoro-4,5-dihydro-2-(5-(2,4-difluoro-phenyl)sulfonylamino)pentylamino-3-thia-benzo[e]-azulene]	> 1000	6.1
NS(=O)(=O)NCCCCCNc1nc2c(s1)CCCc1ccc(F)cc1-2 [Example 25, 1-Aza-9-fluoro-4,5-dihydro-2-(5-aminosulfonylamino)-pentylamino-3-thia-benzo[e]azulene]	> 10000	2.9
CCN(CC)S(=O)(=O)NCCCCNc1nc2c(s1)CCSc1ccccc1-2 [Example 104, N′-[4-(4,5-Dihydrobenzo[2,3]thiepino[4,5-d][1,3]thiazol-2-ylamino)butyl]-N,N-diethylsulfamide]	> 10000	3.2
O=S(=O)(NC[C@H]1CC[C@H](Nc2nc3c(s2)CCCc2ccc(F)cc2-3)CC1)c1ccccc1F [Example 26, trans-1-aza-9-fluoro-2-(4-(2-fluorophenyl)sulfonyl-amino-methyl)cyclohexylamino-4,5-dihydro-3-thia-benzo [e]-azulene]	> 10000	13.1
CCN(CC)S(=O)(=O)NCCCCNc1nc2c(s1)CCCc1ccc(F)cc1-2 [Example 22, 1-Aza-2-(4-diethylaminosulfonylamino)butylamino-9-fluoro-4,5-dihydro-3-thia-benzo[e]azulene]	> 10000	2.9
O=S(=O)(Cc1ccccc1)NC[C@H]1CC[C@H](Nc2nc3c(s2)CCCc2ccc(F)cc2-3)CC1 [Example 29, trans-1-Aza-2-{4-benzylsulfonylaminomethyl}-cyclohexylamino-9-fluoro-4,5-dihydro-3-thia-benzo[e]-azulene]	> 10000	10.3
